Measured values from US6737383B1, “Herbicidal oxadiazolidines” (priority 1999, dated 2004).

What was measured:
goosegrass = assay: Test D goosegrass; assay type: in vivo, Eleusine indica; conditions: Preemergence, 0 to 100 scale
How it was run: (§1)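 Greenhouse pots, seeds in sandy loam; compounds formulated in non-phytotoxic solvent with surfactant; preemergence treatments went on the soil surface within one day of planting. Injury rated visually 14 to 21 days after application on a 0 (none) to 100 (complete control) scale.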

smallflower flatsedge = assay: Test B flood test smallflower flatsedge; assay type: in vivo, Cyperus difformis
How it was run: (§2)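 Flood test on plants grown to the 2-leaf stage; treated plants kept in greenhouse twelve to sixteen days, then visually rated against controls on a 0 (no effect) to 10 (complete control) scale.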

rape = assay: Test B pre/postemergence rape; assay type: in vivo, Brassica napus
How it was run: (§3)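 Test chemicals in a non-phytotoxic solvent mixture with surfactant were sprayed preemergence onto planted seeds and postemergence onto plants 2 to 18 cm tall (1- to 4-leaf stage). After twelve to sixteen days in a greenhouse, injury was visually rated against untreated controls from 0 (no effect) to 10 (complete control).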

Johnson grass = assay: Test D Johnson grass; assay type: in vivo, Sorghum halepense; conditions: Preemergence, 0 to 100 scale
How it was run: as §1

morningglory = assay: Test B pre/postemergence morningglory; assay type: in vivo, Ipomoea hederacea
How it was run: as §3

bamyardgrass = assay: Test B flood test barnyardgrass; assay type: in vivo, Echinochloa crus-galli
How it was run: as §2

blackgrass = assay: Test E blackgrass; assay type: in vivo, Alopecurus myosuroides; conditions: Preemergence
winter barley = assay: Test E winter barley; assay type: in vivo, Hordeum vulgare; conditions: Preemergence
winter wheat [1] = assay: Test E winter wheat; assay type: in vivo, Triticum aestivum; conditions: Postemergence, 0 to 100 scale
How it was run: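 Postemergence: 60:40 sandy loam/greenhouse potting mix, 1- to 4-leaf stage. Formulation: solvent plus surfactant. Assessment: visual comparison with untreated controls at ~21–28 days.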

wild oat = assay: Test E wild oat; assay type: in vivo, Avena fatua; conditions: Preemergence
green foxtail = assay: Test E green foxtail; assay type: in vivo, Setaria viridis; conditions: Preemergence
winter wheat [2] = assay: Test E winter wheat; assay type: in vivo, Triticum aestivum; conditions: Preemergence
Italian ryegrass = assay: Test E Italian ryegrass; assay type: in vivo, Lolium multiflorum; conditions: Preemergence
[3] = Postemergence, Rate 62 g/ha, scale 0 to 10, 0 is no effect, 10 is complete control
[4] = Pre-emergence, Rate 1000 g/ha, scale 0 to 10 (0 no effect, 10 complete control)
[5] = Rate 125 g/ha, Postemergence section (flood test species), scale 0 to 10, 0 no effect, 10 complete control
[6] = Rate 250 g/ha, headed Pre-emergence (flood test species), scale 0 to 10 (0 no effect, 10 complete control)
[7] = Rate 500 g/ha, headed Pre-emergence (flood test species), scale 0 to 10 (0 no effect, 10 complete control)
[8] = Rate 2000 g/ha, Pre-emergence (as headed), scale 0 to 10
[9] = flood test, listed under Postemergence, Rate 250 g/ha, scale 0 to 10, 0 no effect, 10 complete control
[10] = Postemergence, Rate 250 g/ha, scale 0 to 10, 0 no effect, 10 complete control
[11] = Preemergence, Rate 62 g/ha, scale 0 to 10, 0 is no effect, 10 is complete control
[12] = Preemergence, Rate 125 g/ha, scale 0 to 10 (0 no effect, 10 complete control)
[13] = Preemergence, Rate 250 g/ha, scale of 0 to 10 where 0 is no effect and 10 is complete control
[14] = Preemergence, Rate 500 g/ha, scale 0 (no effect) to 10 (complete control)
[15] = Rate 125 g/ha, Postemergence, scale 0 to 10, 0 no effect, 10 complete control
[16] = Rate 500 g/ha, Postemergence, 0 to 10 scale (0 no effect, 10 complete control)
[17] = Rate 500 g/ha, Postemergence section of Table B, 0 to 10 scale (0 no effect, 10 complete control)
[18] = Rate 1000 g/ha, Pre-emergence (as headed), scale 0 to 10
[19] = Rate 2000 g/ha, Pre-emergence (as headed), scale 0 to 10, 0 no effect, 10 complete control
[20] = Rate 2000 g/ha, 0 to 100 scale, 0 is no effect and 100 is complete control
[21] = Rate 500 g/ha, 0 to 100 scale where 0 is no effect and 100 is complete control
[22] = Rate 1000 g/ha, 0 to 100 scale where 0 is no effect and 100 is complete control
[23] = Postemergence (flood test species), Rate 125 g/ha, scale of 0 to 10 where 0 is no effect and 10 is complete control
[24] = Rate 62 g/ha, Postemergence section, flood test species, scale of 0 to 10 where 0 is no effect and 10 is complete control
[25] = Rate 250 g/ha, Postemergence (flood test), scale 0 to 10, 0 is no effect, 10 is complete control
[26] = Rate 250 g/ha, Pre-emergence, flood-test species, scale 0 to 10, 0 is no effect, 10 is complete control
[27] = Rate 500 g/ha, listed under Postemergence (flood test species), scale 0 to 10
[28] = Postemergence, Rate 125 g/ha, scale of 0 to 10 where 0 is no effect and 10 is complete control
[29] = Postemergence, Rate 1000 g/ha, scale 0 to 10 (0 no effect, 10 complete control)
[30] = Preemergence, Rate 62 g/ha, scale of 0 to 10 where 0 is no effect and 10 is complete control
[31] = Preemergence, Rate 125 g/ha, 0 is no effect, 10 is complete control
[32] = Preemergence, Rate 250 g/ha, scale 0 to 10, 0 is no effect, 10 is complete control
[33] = Preemergence, Rate 500 g/ha, scale 0 to 10 (0 no effect, 10 complete control)
[34] = Rate 62 g/ha, Postemergence, scale of 0 to 10 where 0 is no effect and 10 is complete control
[35] = Rate 250 g/ha, Postemergence, scale 0 to 10, 0 is no effect, 10 is complete control
[36] = Rate 500 g/ha, Postemergence, scale 0 to 10
[37] = Rate 1000 g/ha, Preemergence, scale 0 to 10 (0 no effect, 10 complete control)
[38] = Rate 2000 g/ha, Postemergence, scale 0 to 10
[39] = Rate 2000 g/ha, Preemergence, scale 0 to 10
[40] = Rate 32 g/ha, 0 no injury, 100 complete control
[41] = Rate 64 g/ha, 0 no injury, 100 complete control
[42] = Rate 125 g/ha, 0 no injury, 100 complete control

SMILES: Cc1ccccc1-n1c(=O)on(C(=O)N(c2ccccc2)C(C)C)c1=O [Compound 36]
- Plant response rating, Goosegrass (goosegrass; Rate 500 g/ha): 100
- S. Flatsedge plant response rating (smallflower flatsedge; [3]): 0
- S. Flatsedge plant response rating (smallflower flatsedge; [4]): 0
- S. Flatsedge plant response rating (smallflower flatsedge; [5]): 0
- S. Flatsedge plant response rating (smallflower flatsedge; [6]): 0
- Plant response rating, S. Flatsedge (smallflower flatsedge; [7]): 0
- S. Flatsedge plant response rating (smallflower flatsedge; [8]): 0
- S. Flatsedge plant response rating (smallflower flatsedge; [9]): 0
- Rape plant response rating (rape; [3]): 0
- Rape plant response rating (rape; [10]): 0
- Plant response rating, Rape (rape; [11]): 0
- Plant response rating, Rape (rape; [12]): 0
- Plant response rating, Rape (rape; [13]): 0
- Rape plant response rating (rape; [14]): 3
- Rape plant response rating (rape; [15]): 0
- Rape plant response rating (rape; [16]): 0
- Plant response rating Johnsongrass (Johnson grass; Rate 500 g/ha): 0
- Morningglory plant response rating (morningglory; [3]): 4
- Morningglory plant response rating (morningglory; [10]): 9
- Plant response rating, Morningglory (morningglory; [11]): 0
- Plant response rating, Morningglory (morningglory; [12]): 0
- Plant response rating, Morningglory (morningglory; [13]): 0
- Morningglory plant response rating (morningglory; [14]): 0
- Morningglory plant response rating (morningglory; [15]): 9
- Morningglory plant response rating (morningglory; [16]): 9
- Barnyardgrass plant response rating (bamyardgrass; [3]): 0
- Barnyardgrass plant response rating (bamyardgrass; [5]): 0
- Barnyardgrass plant response rating (bamyardgrass; [6]): 0
- Barnyardgrass plant response rating (bamyardgrass; [17]): 5
- Plant response rating, Barnyardgrass (bamyardgrass; [7]): 0
- Barnyardgrass plant response rating (bamyardgrass; [18]): 0
- Barnyardgrass plant response rating (bamyardgrass; [19]): 0
- Barnyardgrass plant response rating (bamyardgrass; [9]): 2

SMILES: CC(C)N(C(=O)n1oc(=O)n(N(C)c2ccccc2)c1=O)c1ccc(F)cc1 [Compound 177]
- Plant response rating, Blackgrass (blackgrass; [20]): 60
- Plant response rating, Blackgrass (blackgrass; [21]): 60
- Plant response rating, Blackgrass (blackgrass; [22]): 60
- S. Flatsedge plant response rating (smallflower flatsedge; [23]): 0
- S. Flatsedge plant response rating (smallflower flatsedge; [4]): 0
- S. Flatsedge plant response rating (smallflower flatsedge; [24]): 0
- Plant response rating, S. Flatsedge (smallflower flatsedge; [25]): 0
- S. Flatsedge plant response rating (smallflower flatsedge; [26]): 0
- S. Flatsedge plant response rating (smallflower flatsedge; [27]): 0
- S. Flatsedge plant response rating (smallflower flatsedge; Rate 500 g/ha, Pre-emergence, flood test species, scale 0 to 10 (0 no effect, 10 complete control)): 0
- S. Flatsedge plant response rating (smallflower flatsedge; [8]): 0
- Rape plant response rating (rape; [28]): 0
- Rape plant response rating (rape; [29]): 0
- Rape plant response rating (rape; [30]): 0
- Rape plant response rating (0 to 10 scale) (rape; [31]): 0
- Rape plant response rating (rape; [32]): 0
- Rape plant response rating (rape; [33]): 0
- Rape plant response rating (rape; [34]): 0
- Plant response rating, Rape (rape; [35]): 0
- Rape plant response rating (rape; [36]): 0
- Plant response rating, Rape (rape; [37]): 0
- Rape plant response rating (rape; [38]): 3
- Rape plant response rating (rape; [39]): 0
- Plant response rating, Barley (winter) (winter barley; [20]): 80
- Plant response rating, Barley (winter) (winter barley; [21]): 60
- Plant response rating, Barley (winter) (winter barley; [22]): 70
- Plant response rating, Wheat (winter) (winter wheat [1]; Rate 1000 g/ha, 0 is no effect and 100 is complete control): 65
- Plant response rating, Wheat (winter) (winter wheat [1]; Rate 2000 g/ha, 0 is no effect and 100 is complete control): 70
- Plant response rating, Wheat (winter) (winter wheat [1]; Rate 500 g/ha, 0 is no effect, 100 is complete control): 70
- Plant response rating, Wild oat (wild oat; [20]): 70
- Plant response rating, Wild oat (wild oat; [21]): 80
- Plant response rating, Wild oat (wild oat; [22]): 80
- Plant response rating, Green foxtail (green foxtail; [20]): 100
- Plant response rating, Green foxtail (green foxtail; [21]): 60
- Plant response rating, Green foxtail (green foxtail; [22]): 85
- Morningglory plant response rating (morningglory; [28]): 0
- Morningglory plant response rating (morningglory; [29]): 1
- Morningglory plant response rating (morningglory; [30]): 0
- Morningglory plant response rating (0 to 10 scale) (morningglory; [31]): 0
- Morningglory plant response rating (morningglory; [32]): 0
- Morningglory plant response rating (morningglory; [33]): 0
- Morningglory plant response rating (morningglory; [34]): 0
- Plant response rating, Morningglory (morningglory; [35]): 2
- Morningglory plant response rating (morningglory; [36]): 4
- Plant response rating, Morningglory (morningglory; [37]): 0
- Morningglory plant response rating (morningglory; [38]): 1
- Morningglory plant response rating (morningglory; [39]): 0
- Barnyardgrass plant response rating (bamyardgrass; [23]): 0
- Barnyardgrass plant response rating (bamyardgrass; [24]): 0
- Plant response rating, Barnyardgrass (bamyardgrass; [25]): 0
- Barnyardgrass plant response rating (bamyardgrass; [26]): 0
- Plant response rating, Barnyardgrass (bamyardgrass; [7]): 0
- Barnyardgrass plant response rating (bamyardgrass; [27]): 0
- Barnyardgrass plant response rating (bamyardgrass; [18]): 0
- Barnyardgrass plant response rating (bamyardgrass; [19]): 0
- Plant response rating, Wheat (winter) (winter wheat [2]; [20]): 70
- Plant response rating, Wheat (winter) (winter wheat [2]; [21]): 70
- Plant response rating, Wheat (winter) (winter wheat [2]; [22]): 50
- Plant response rating, I. Ryegrass (Italian ryegrass; [20]): 65
- Plant response rating, I. Ryegrass (Italian ryegrass; [21]): 60
- Plant response rating, I. Ryegrass (Italian ryegrass; [22]): 60

SMILES: CCc1ccccc1-n1c(=O)on(C(=O)N(c2ccc(F)cc2)C(C)C)c1=O [Compound 34]
- Plant response rating, Goosegrass (goosegrass; [40]): 0
- Plant response rating, Goosegrass (goosegrass; [41]): 75
- Plant response rating, Goosegrass (goosegrass; [42]): 85
- Plant response rating, Goosegrass (goosegrass; Rate 250 g/ha): 98
- S. Flatsedge plant response rating (smallflower flatsedge; [3]): 0
- S. Flatsedge plant response rating (smallflower flatsedge; [5]): 0
- S. Flatsedge plant response rating (smallflower flatsedge; [9]): 0
- Rape plant response rating (rape; [3]): 0
- Rape plant response rating (rape; [10]): 0
- Plant response rating, Rape (rape; [11]): 0
- Plant response rating, Rape (rape; [12]): 0
- Plant response rating, Rape (rape; [13]): 0
- Rape plant response rating (rape; [14]): 3
- Rape plant response rating (rape; [15]): 0
- Rape plant response rating (rape; [16]): 0
- Plant response rating Johnsongrass (Johnson grass; [40]): 0
- Plant response rating Johnsongrass (Johnson grass; [41]): 0
- Plant response rating Johnsongrass (Johnson grass; [42]): 20
- Plant response rating Johnsongrass (Johnson grass; Rate 250 g/ha): 30
- Morningglory plant response rating (morningglory; [3]): 1
- Morningglory plant response rating (morningglory; [10]): 5
- Plant response rating, Morningglory (morningglory; [11]): 0
- Plant response rating, Morningglory (morningglory; [12]): 0
- Plant response rating, Morningglory (morningglory; [13]): 0
- Morningglory plant response rating (morningglory; [14]): 0
- Morningglory plant response rating (morningglory; [15]): 2
- Morningglory plant response rating (morningglory; [16]): 8
- Barnyardgrass plant response rating (bamyardgrass; [3]): 0
- Barnyardgrass plant response rating (bamyardgrass; [5]): 0
- Barnyardgrass plant response rating (bamyardgrass; [17]): 0
- Barnyardgrass plant response rating (bamyardgrass; [9]): 0
